Results as given in patent US4398029A, “Quinoline carboxylic acid derivatives and process for the preparation” (Kyorin Seiyaku Kabushiki Kaisha, priority 1981, dated 1983).
Values after ≈ are worked out from the molar mass of the structure shown. Read-outs that look alike come from different tables or passages of the source.

Legend:
E. coli ATCC 10536 = assay: Antibacterial activity (MIC), standard agar dilution streak method; assay type: cell-based, Escherichia coli; details: Escherichia coli, ATCC10536, read-out: Minimum inhibitory concentration
Method: (§1) The antibacterial activities of the compounds of the present invention were assayed by the standard agar dilution streak method against Gram-positive and Gram-negative bacteria [Chemotherapy, 22, 1126 (1974)].

P. mirabilis IID 994 = assay: as above; assay type: cell-based; details: Proteus mirabilis, IID994; P. mirabilis IID 994; read-out: Minimum inhibitory concentration
Method: as §1

[1] = test system: Citrobacter freundii IID 976; assay: as above; assay type: cell-based; details: read-out: Minimum inhibitory concentration
Method: as §1

[2] = test system: Escherichia coli NIHJ JC-2; assay: as above; assay type: cell-based; details: read-out: Minimum inhibitory concentration
Method: as §1

P. morganii IID 602 = assay: as above; assay type: cell-based; details: Morganella morganii, IID602, P. morganii IID 602; read-out: Minimum inhibitory concentration
Method: as §1

[3] = test system: Pseudomonas aeruginosa V-1; assay: as above; assay type: cell-based; details: read-out: Minimum inhibitory concentration
Method: as §1

[4] = test system: Enterobacter cloacae IID 977; assay: as above; assay type: cell-based; details: read-out: Minimum inhibitory concentration
Method: as §1

[5] = test system: Serratia marcescens IID 618; assay: as above; assay type: cell-based; details: read-out: Minimum inhibitory concentration
Method: as §1

[6] = test system: Klebsiella pneumoniae IFO 3512; assay: as above; assay type: cell-based; details: read-out: Minimum inhibitory concentration
Method: as §1

[7] = test system: Bacillus subtilis PCI 219; assay: as above; assay type: cell-based; details: PCI219; Bacillus subtilis PCI 219; read-out: Minimum inhibitory concentration
Method: as §1

[8] = test system: Acinetobacter anitratus IID 876; assay: as above; assay type: cell-based; details: Acinetobacter calcoaceticus, IID876, read-out: Minimum inhibitory concentration
Method: as §1

[9] = test system: Yersinia enterocolitica IID 981; assay: as above; assay type: cell-based; details: read-out: Minimum inhibitory concentration
Method: as §1

[10] = test system: Alcaligenes faecalis 0104002; assay: as above; assay type: cell-based; details: read-out: Minimum inhibitory concentration
Method: as §1

[11] = test system: Salmonella enteritidis IID 604; assay: as above; assay type: cell-based; details: Salmonella enterica; Salmonella enteritidis IID 604; read-out: Minimum inhibitory concentration
Method: as §1

[12] = test system: Staphylococcus aureus 209 p; assay: as above; assay type: cell-based; details: Staphylococcus aureus 209 p; read-out: Minimum inhibitory concentration
Method: as §1

S. epidermidis IID 866 = assay: as above; assay type: cell-based; details: Staphylococcus epidermidis, IID866, read-out: Minimum inhibitory concentration
Method: as §1

Proteus vulgaris 3167 = assay: as above; assay type: cell-based; details: read-out: Minimum inhibitory concentration
Method: as §1

S. aureus Terajima = assay: as above; assay type: cell-based, Staphylococcus aureus; details: Staphylococcus aureus; S. aureus Terajima; read-out: Minimum inhibitory concentration
Method: as §1

Shigella sonnei IID 969 = assay: microbe, parasite or virus in culture; assay type: cell-based; details: Shigella sonnei
Method: as §1

P. aeruginosa IFO 12689 = assay: Antibacterial activity (MIC), standard agar dilution streak method; assay type: cell-based, Pseudomonas aeruginosa; details: Pseudomonas aeruginosa, IFO12689, P. aeruginosa IFO 12689; read-out: Minimum inhibitory concentration
Method: as §1

[13] = Citrobacter freundii, IID976, Citrobacter freundii IID 976
[14] = Escherichia coli, NIHJJC2, Escherichia coli NIHJ JC-2
[15] = Enterobacter cloacae, IID977, Enterobacter cloacae IID 977
[16] = Serratia marcescens, IID618, Serratia marcescens IID 618
[17] = Klebsiella pneumoniae, IFO3512, Klebsiella pneumoniae IFO 3512
[18] = Yersinia enterocolitica, IID981, Yersinia enterocolitica IID 981
[19] = Alcaligenes faecalis, 0104002, Alcaligenes faecalis 0104002
[20] = Proteus vulgaris, 3167, Proteus vulgaris 3167
[21] = IID969, Shigella sonnei IID 969, read-out: Minimum inhibitory concentration

| SMILES | MIC (E. coli ATCC 10536) [µg/mL] | MIC (P. mirabilis IID 994) [µg/mL] | MIC [1, 13] [µg/mL] | MIC [2, 14] [µg/mL] | MIC (P. morganii IID 602) [µg/mL] | MIC ([3]; V1, Pseudomonas aeruginosa V-1) [µg/mL] | MIC [4, 15] [µg/mL] | MIC [5, 16] [µg/mL] | MIC [6, 17] [µg/mL] | MIC [7] [µg/mL] | MIC [8] [µg/mL] | MIC [9, 18] [µg/mL] | MIC [10, 19] [µg/mL] | MIC [11] [µg/mL] | MIC [12] [µg/mL] | MIC (S. epidermidis IID 866) [µg/mL] | MIC (Proteus vulgaris 3167; [20]) [µg/mL] | MIC (S. aureus Terajima) [µg/mL] | MIC (Shigella sonnei IID 969; [21]) [µg/mL] | MIC (P. aeruginosa IFO 12689) [µg/mL] | also measured |
| --- | --- | --- | --- | --- | --- | --- | --- | --- | --- | --- | --- | --- | --- | --- | --- | --- | --- | --- | --- | --- | --- |
| CCn1cc(C(=O)O)c(=O)c2cc(F)c(N3CCCC3)c(F)c21 [Example 11, 1-Ethyl-6,8-difluoro-1,4-dihydro-4-oxo-7-(1-pyrrolidinyl)quinoline-3-carboxylic acid] | 0.2 (≈ 0.621 µM) | 0.1 (≈ 0.31 µM) | 0.39 (≈ 1.21 µM) | 0.2 (≈ 0.621 µM) | 0.39 (≈ 1.21 µM) | 6.25 (≈ 19.4 µM) | 1.56 (≈ 4.84 µM) | 1.56 (≈ 4.84 µM) | ≤ 0.05 | ≤ 0.05 | 0.39 (≈ 1.21 µM) | 0.39 (≈ 1.21 µM) | 0.39 (≈ 1.21 µM) | 1.56 (≈ 4.84 µM) | 0.1 (≈ 0.31 µM) | 0.2 (≈ 0.621 µM) | ≤ 0.05 | 0.1 (≈ 0.31 µM) | 0.2 (≈ 0.621 µM) | 6.25 (≈ 19.4 µM) | – |
| CCn1cc(C(=O)O)c(=O)c2cc(F)c(N3CCC(N(C)C)CC3)c(F)c21 [Example 13, 1-Ethyl-6,8-difluoro-1,4-dihydro-7-(4-dimethylamino-1-piperidinyl)-4-oxoquinoline-3-carboxylic acid] | 0.2 (≈ 0.527 µM) | 0.39 (≈ 1.03 µM) | 0.39 (≈ 1.03 µM) | ≤ 0.05 | 1.56 (≈ 4.11 µM) | 12.5 (≈ 32.9 µM) | 3.13 (≈ 8.25 µM) | 0.78 (≈ 2.06 µM) | ≤ 0.05 | 0.1 (≈ 0.264 µM) | 0.78 (≈ 2.06 µM) | 0.78 (≈ 2.06 µM) | 6.25 (≈ 16.5 µM) | 0.78 (≈ 2.06 µM) | 0.39 (≈ 1.03 µM) | 0.39 (≈ 1.03 µM) | 0.1 (≈ 0.264 µM) | 0.39 (≈ 1.03 µM) | 0.1 (≈ 0.264 µM) | 25 (≈ 65.9 µM) | – |
| CCCn1cc(C(=O)O)c(=O)c2cc(F)c(N3CCNCC3)c(F)c21.Cl [Example 2, 6,8-Difluoro-1,4-dihydro-4-oxo-7-(1-piperazinyl)-1-n-propylquinoline-3-carboxylic acid hydrochloride] | 0.2 | 0.1 | – | – | 0.39 | – | – | – | – | 0.2 | 1.56 | – | – | 0.2 | 1.56 | 3.13 | – | 3.13 | – | 6.25 | MIC ([1]; IID976, Citrobacter freundii IID 976): 0.2 µg/mL; MIC ([2]; NIHJJC2, Escherichia coli NIHJ JC-2): ≤ 0.05 µg/mL; MIC ([3]; Pseudomonas aeruginosa, V1, Pseudomonas aeruginosa V-1): 12.5 µg/mL; MIC ([4]; IID977, Enterobacter cloacae IID 977): 0.78 µg/mL; MIC ([5]; IID618, Serratia marcescens IID 618): 0.39 µg/mL; MIC ([6]; IFO3512, Klebsiella pneumoniae IFO 3512): 0.1 µg/mL; MIC ([9]; IID981, Yersinia enterocolitica IID 981): 0.39 µg/mL; MIC ([10]; Alcaligenes faecalis 0104002): 1.56 µg/mL; MIC (Proteus vulgaris 3167; Proteus vulgaris 3167): ≤ 0.05 µg/mL; MIC (Shigella sonnei IID 969; IID969, read-out: Minimum inhibitory concentration): 0.1 µg/mL |
| CCn1cc(C(=O)O)c(=O)c2cc(F)c(N3CCOCC3)c(F)c21 [Example 12, 1-Ethyl-6,8-difluoro-1,4-dihydro-7-(4-morpholinyl)4-oxoquinoline-3-carboxylic acid] | 0.39 (≈ 1.15 µM) | 0.2 (≈ 0.591 µM) | 0.78 (≈ 2.31 µM) | 0.2 (≈ 0.591 µM) | 0.78 (≈ 2.31 µM) | 12.5 (≈ 36.9 µM) | 1.56 (≈ 4.61 µM) | 1.56 (≈ 4.61 µM) | ≤ 0.05 | ≤ 0.05 | 1.56 (≈ 4.61 µM) | 0.39 (≈ 1.15 µM) | 1.56 (≈ 4.61 µM) | 1.56 (≈ 4.61 µM) | 0.2 (≈ 0.591 µM) | 0.39 (≈ 1.15 µM) | ≤ 0.05 | 0.39 (≈ 1.15 µM) | 0.2 (≈ 0.591 µM) | 12.5 (≈ 36.9 µM) | – |
